One compound from patent US20240306639A1, “USE OF FLUAZIFOP-P-BUTYL FOR INSECT CONTROL” (priority 2021, published 2024) can be followed below.

The subject of this test is Bemisia tabaci (Silverleaf whitefly). The experiment in a line: Curative control of Bemisia tabaci second nymph stage (N2) on French beans, spray application. Type of test: in vivo. An excerpt:
Examples 1 to 3 describe biological tests relating to the curative and preventative control of a series of insects with the spray application of dilutions of a formulation containing fluazifop-P-butyl as sole active ingredient (EC125 formulation (FUSILADE MAX®)) in combination with OCHIMAR adjuvant (Syngenta-alkyl ester of phosphoric acid (752 g/L EC formulation)) to bean or cabbage plants infested with Bemisia tabaci, Frankliniella occidentalis or Myzus persicae. The testing protocols and insect control effects are shown. • ai=active ingredient (fluazifop-P-butyl).
Curative control of Bemisia tabaci (Silverleaf whitefly), second nymph stage (N2), treated on French beans (BBCH12):
• All treatments including check were applied with 250 mL adjuvant (Ochima) per hectare (ha).

With `CCCCOC(=O)[C@@H](C)Oc1ccc(Oc2ccc(C(F)(F)F)cn2)cc1` [fluazifop-P-butyl, butyl (2R)-2-[4-[5-(trifluoromethyl)pyridin-2-yl]oxyphenoxy]propanoate], where the note is “conclusion from the data in Tables 1 to 3”, the “efficacy against whiteflies compared to thrips or aphids” value is reported as “selective efficacy”. Also, the controlling whitefly result (effect enhanced compared to aphids and thrips) is on record as “highly effective”.
